Read-outs that look alike come from different tables or passages of the source.
Experiments:
[1] = molecular target: T1, GIPR on the islets of Langerhans (Mus musculus, UniProt Q0P543); assay: In vitro binding to isolated islets; conditions: islets of C3H mice, 24 hours, 37 °C, + 25 µg unlabeled GIP1-42, mean ± SD
T1 construct: Islets of Langerhans were isolated from donor C3H mice by collagenase digestion; from tissue; host or cells: isolated islets of Langerhans from C3H mice
T1 sequence (Q0P543 19-460): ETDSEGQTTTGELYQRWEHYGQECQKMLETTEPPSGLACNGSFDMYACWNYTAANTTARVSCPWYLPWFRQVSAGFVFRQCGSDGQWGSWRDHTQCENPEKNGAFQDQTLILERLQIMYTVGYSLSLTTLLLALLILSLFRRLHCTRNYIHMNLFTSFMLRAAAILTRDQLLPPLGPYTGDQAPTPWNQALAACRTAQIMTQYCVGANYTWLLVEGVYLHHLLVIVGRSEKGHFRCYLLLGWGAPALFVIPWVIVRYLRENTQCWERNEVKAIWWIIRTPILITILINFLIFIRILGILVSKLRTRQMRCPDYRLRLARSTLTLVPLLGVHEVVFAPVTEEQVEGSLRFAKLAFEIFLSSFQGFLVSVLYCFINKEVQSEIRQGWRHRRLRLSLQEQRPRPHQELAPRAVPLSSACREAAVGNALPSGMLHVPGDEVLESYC
Procedure: Islets of Langerhans were isolated from donor C3H mice by collagenase digestion as follows. Mice were euthanized by CO2/O2 suffocation and 2 ml of ice cold RPMI 1640 containing 1 mg/ml collagenase type V (Sigma Aldrich) were infused via the pancreatic duct in situ. After dissection, the perfused pancreata were collected in serum free medium containing collagenase and kept on ice until digestion. Pancreata were digested for 12 min at 37 °C. Digestion was stopped by adding RPMI medium containing 10% FCS, 2 mM L-glutamine, 100 U/ml penicillin and 100 U/ml streptomycin (complete RPMI). After washing, digested pancreata were passed through a mesh. Afterwards, islets were purified on a discontinuous Ficoll gradient (densities: 1.108; 1.096; 1.037; Cellgro by Mediatech Inc, Manassas, VA, USA) by centrifugation at 625 × g for 16 min without brake. Islets were collected from the intersection of the second and third layer and remaining Ficoll was removed by washing with complete RPMI. Isolated islets were cultured overnight in complete RPMI medium in a humidified atmosphere containing 5% CO2 at 37 °C.
After overnight recovery from the isolation procedure, islets from the donor C3H mice were collected, counted and resuspended in complete RPMI. […] After incubation, islets were washed extensively with binding buffer and islet-associated radioactivity was measured in a well type gamma counter.

[2] = Biodistribution study, NES2Y tumor mice; format: in vivo; conditions: female, mouse, iv, total radioactivity, i.v., 0.2 µg; for tissue uptake at 1 h: BALB/c nude; for tissue to tissue ratio at 1 h: NES2Y tumor BALB/c nude mice
Procedure: All animal experiments were approved by the Animal Welfare Body of the Radboud University, Nijmegen, The Netherlands and carried out in accordance with their guidelines. Six to eight weeks old, female BALB/c nude mice and C3H mice were purchased from Janvier labs (Le Genest Saint Isle, France). For all in vivo experiments, 6-8 weeks old female BALB/c nude mice were injected subcutaneously in the right shoulder with 0.2 ml of a 2.5 × 10^7 cells/ml suspension of BHK-GIPR transfected cells or with 0.2 ml of a 2.5 × 10^7 cells/ml suspension of NES2Y cells mixed with matrigel (2:1) in the right shoulder. When the tumor reached a diameter of 2-5 mm, mice were randomly divided in groups.
BALB/c nude mice bearing BHK-GIPR transfected tumors were injected intravenously with approximately 3 MBq (peptide dose 0.2 µg = 0.04 nmol) of [Lys^37(^111In-DTPA)]N-acetyl-GIP1-42 via the tail vein. At various time points after injection (1, 4 and 24 hours), mice were euthanized by CO2/O2 suffocation and blood, tumor and other relevant tissues were dissected, weighed and measured in a well type gamma counter. The percentage injected dose per gram (%ID/g) was calculated for each tissue. To determine whether the GIP1-42 uptake was GIPR mediated, 25 µg of unlabeled GIP1-42 was co-injected in a separate group (n = 5) and mice were euthanized four hours post-injection. BALB/c nude mice bearing NES2Y tumors (n = 5) were injected intravenously with approximately 3 MBq (peptide dose 0.2 µg = 0.04 nmol) of [Lys^37(^111In-DTPA)]N-acetyl-GIP1-42 via the tail vein. One hour after injection, mice were euthanized by CO2/O2 suffocation and blood, tumor and other relevant tissues were dissected, weighed and measured in a well type gamma counter. The percentage injected dose per gram (%ID/g) was determined for each tissue. To determine whether the GIP1-42 uptake was GIPR mediated, 25 µg of unlabeled GIP1-42 was co-injected in a separate group (n = 2) and mice were euthanized one hours post-injection.

With `CC[C@H](C)[C@H](NC(=O)[C@H](CO)NC(=O)[C@H](Cc1ccc(O)cc1)NC(=O)[C@H](CC(=O)O)NC(=O)[C@H](CO)NC(=O)[C@@H](NC(=O)[C@H](Cc1ccccc1)NC(=O)[C@@H](NC(=O)CNC(=O)[C@H](CCC(=O)O)NC(=O)[C@H](C)NC(=O)[C@H](Cc1ccc(O)cc1)NC(C)=O)[C@@H](C)O)[C@@H](C)CC)C(=O)N[C@@H](C)C(=O)N[C@@H](CCSC)C(=O)N[C@@H](CC(=O)O)C(=O)N[C@@H](CCCCN)C(=O)N[C@H](C(=O)N[C@@H](Cc1c[nH]cn1)C(=O)N[C@@H](CCC(N)=O)C(=O)N[C@@H](CCC(N)=O)C(=O)N[C@@H](CC(=O)O)C(=O)N[C@@H](Cc1ccccc1)C(=O)N[C@H](C(=O)N[C@@H](CC(N)=O)C(=O)N[C@@H](Cc1c[nH]c2ccccc12)C(=O)N[C@@H](CC(C)C)C(=O)N[C@@H](CC(C)C)C(=O)N[C@@H](C)C(=O)N[C@@H](CCC(N)=O)C(=O)N[C@@H](CCCCN)C(=O)NCC(=O)N[C@@H](CCCCN)C(=O)N[C@@H](CCCCN)C(=O)N[C@@H](CC(N)=O)C(=O)N[C@@H](CC(=O)O)C(=O)N[C@@H](Cc1c[nH]c2ccccc12)C(=O)N[C@@H](CCCCNC(=O)CN(CCN(CCN(CC(=O)O)CC(=O)O)CC(=O)O)CC(=O)O)C(=O)N[C@@H](Cc1c[nH]cn1)C(=O)N[C@@H](CC(N)=O)C(=O)N[C@H](C(=O)N[C@H](C(=O)N[C@@H](CCC(N)=O)C(=O)O)[C@@H](C)O)[C@@H](C)CC)C(C)C)[C@@H](C)CC` [[Lys^37(^111In-DTPA)]N-acetyl-GIP1-42, metal not drawn] the “tracer bound to 200 isolated islets with excess unlabeled GIP1-42” value [1] was 0.03 ± 0.01 fmol, the tissue uptake at 1 h ([2]; NES2Y tumor, 0.2 ug, 1 h p.i., mean n=5, read-out: Tumor uptake) was 0.7 ± 0.2 %ID/g and the tissue uptake at 1 h ([2]; NES2Y tumor, 1 h p.i. + xs (25 µg unlabeled GIP1-42), mean, n=5, read-out: Tumor uptake) was 0.6 ± 0.01 %ID/g. For the same compound, the tissue uptake at 1 h ([2]; duodenum, 0.2 ug, 1 h p.i., mean n=5, read-out: Duodenum uptake) was 0.42 %ID/g, the tissue uptake at 1 h ([2]; duodenum, 1 h p.i. + xs (25 µg unlabeled GIP1-42), mean, n=5, read-out: Duodenum uptake) was 0.369 %ID/g and the tissue uptake at 1 h ([2]; heart, 0.2 ug, 1 h p.i., mean n=5, read-out: Heart uptake) was 0.135 %ID/g. For the same compound, the tissue uptake at 1 h ([2]; heart, 1 h p.i. + xs (25 µg unlabeled GIP1-42), mean, n=5, read-out: Heart uptake) was 0.103 %ID/g, the tissue uptake at 1 h ([2]; kidney, 0.2 ug, 1 h p.i., mean n=5, read-out: Kidney uptake) was 184 %ID/g and the tissue uptake at 1 h ([2]; kidney, 1 h p.i. + xs (25 µg unlabeled GIP1-42), mean, n=5, read-out: Kidney uptake) was 180 %ID/g. For the same compound, the tissue uptake at 1 h ([2]; liver, 0.2 ug, 1 h p.i., mean n=5, read-out: Liver uptake) was 1.1 %ID/g, the tissue uptake at 1 h ([2]; liver, 1 h p.i. + xs (25 µg unlabeled GIP1-42), mean, n=5, read-out: Liver uptake) was 0.827 %ID/g and the tissue uptake at 1 h ([2]; lung, 0.2 ug, 1 h p.i., mean n=5, read-out: Lung uptake) was 0.485 %ID/g. The tissue uptake at 1 h ([2]; lung, 1 h p.i. + xs (25 µg unlabeled GIP1-42), mean, n=5, read-out: Lung uptake) was 0.474 %ID/g, the tissue uptake at 1 h ([2]; muscle, 0.2 ug, 1 h p.i., mean n=5, read-out: Muscle uptake) was 0.069 %ID/g and the tissue uptake at 1 h ([2]; muscle, 1 h p.i. + xs (25 µg unlabeled GIP1-42), mean, n=5, read-out: Muscle uptake) was 0.057 %ID/g. It also gave a tissue uptake at 1 h ([2]; pancreas, 0.2 ug, 1 h p.i., mean n=5, read-out: Pancreas uptake) of 0.201 %ID/g, a tissue uptake at 1 h ([2]; pancreas, 1 h p.i. + xs (25 µg unlabeled GIP1-42), mean, n=5, read-out: Pancreas uptake) of 0.158 %ID/g and a tissue uptake at 1 h ([2]; spleen, 0.2 ug, 1 h p.i., mean n=5, read-out: Spleen uptake) of 0.462 %ID/g. The tissue uptake at 1 h ([2]; spleen, 1 h p.i. + xs (25 µg unlabeled GIP1-42), mean, n=5, read-out: Spleen uptake) was 0.341 %ID/g, the tissue uptake at 1 h ([2]; stomach, 0.2 ug, 1 h p.i., mean n=5, read-out: Stomach uptake) was 0.336 %ID/g and the tissue uptake at 1 h ([2]; stomach, 1 h p.i. + xs (25 µg unlabeled GIP1-42), mean, n=5, read-out: Stomach uptake) was 0.283 %ID/g. For the same compound, the tissue uptake at 1 h ([2]; whole blood, 0.2 ug, 1 h p.i., mean n=5, read-out: Blood uptake) was 0.175 %ID/g, the tissue uptake at 1 h ([2]; whole blood, 1 h p.i. + xs (25 µg unlabeled GIP1-42), mean, n=5, read-out: Blood uptake) was 0.214 %ID/g and the tissue to tissue ratio at 1 h ([2]; tumor and blood, 0.2 ug, 1 h p.i., mean n=5, read-out: Tumor/Blood) was 3.96. The tissue to tissue ratio at 1 h ([2]; tumor and blood, 1 h p.i. + xs (25 µg unlabeled GIP1-42), mean, n=5, read-out: Tumor/Blood) was 3.01, the tissue to tissue ratio at 1 h ([2]; tumor and heart, 0.2 ug, 1 h p.i., mean n=5, read-out: Tumor/Heart) was 4.83 and the tissue to tissue ratio at 1 h ([2]; tumor and heart, 1 h p.i. + xs (25 µg unlabeled GIP1-42), mean, n=5, read-out: Tumor/Heart) was 6.09. The tissue to tissue ratio at 1 h ([2]; tumor and kidney, 0.2 ug, 1 h p.i., mean n=5, read-out: Tumor/Kidney) was 0.004, the tissue to tissue ratio at 1 h ([2]; tumor and kidney, 1 h p.i. + xs (25 µg unlabeled GIP1-42), mean, n=5, read-out: Tumor/Kidney) was 0.004 and the tissue to tissue ratio at 1 h ([2]; tumor and lung, 0.2 ug, 1 h p.i., mean n=5, read-out: Tumor/Lung) was 1.38. The tissue to tissue ratio at 1 h ([2]; tumor and lung, 1 h p.i. + xs (25 µg unlabeled GIP1-42), mean, n=5, read-out: Tumor/Lung) was 1.33, the tissue to tissue ratio at 1 h ([2]; tumor and muscle, 0.2 ug, 1 h p.i., mean n=5, read-out: Tumor/Muscle) was 9.43 and the tissue to tissue ratio at 1 h ([2]; tumor and muscle, 1 h p.i. + xs (25 µg unlabeled GIP1-42), mean, n=5, read-out: Tumor/Muscle) was 11.1.

— paper PMC5811606, “Characterization of ^111In-labeled Glucose-Dependent Insulinotropic Polypeptide as a Radiotracer for Neuroendocrine Tumors” (Scientific Reports, 2018)
